Assay: Safety and tolerability of single ascending doses in healthy Japanese volunteers
Format: in vivo, human
Protocol: A double-blind, placebo-controlled study was done to assess the safety, tolerability, and pharmacokinetics (PK) of Compound A. Thirty-two healthy adult Japanese volunteers were randomized into four cohorts. The volunteers were randomized 3:1 to receive a single dose of Compound A or placebo in a fasted state (see FIG. 4). The safety, tolerability and PK plasma profiles of Compound A were assessed after each dose. Full plasma PK profiles were determined up to 28 days after each single dose of Compound A. Urinary elimination was assessed in Cohort C (see FIG. 4) for 7 day. […] The treatment emergent adverse events (TEAEs) reported reported were hiccups, upper respiratory tract infection, nasal congestion, and cough. […] No significant laboratory abnormalities were discovered, most laboratory abnormalities were Grade 1.

SMILES: C[C@H](NS(=O)(=O)c1cc(C(=O)Nc2ccc(F)c(C#N)c2)n(C)c1)C(F)(F)F [Compound A]
- Deaths (25 mg single dose (n = 6)): 0
- Grade 2 AEs: Bilirobin increased (25 mg single dose (n = 6)): 0
- Grade 2 AEs: Cholesterol increased (25 mg single dose (n = 6)): 0
- Grade 2 AEs: Fibrinogen decreased (25 mg single dose (n = 6)): 0
- Grade 2 AEs: Leukocytes decreased (25 mg single dose (n = 6)): 0
- Grade 2 AEs: Triglycerides increased (25 mg single dose (n = 6)): 1
- SAEs (25 mg single dose (n = 6)): 0
- Treatment-emergent AEs Related to Compound A (25 mg single dose (n = 6)): 0
- Volunteers with ≥0.1 AE (treatment-emergent AEs) (25 mg single dose (n = 6)): 0
- Deaths (150 mg single dose (n = 6)): 0
- Grade 2 AEs: Bilirobin increased (150 mg single dose (n = 6)): 0
- Grade 2 AEs: Cholesterol increased (150 mg single dose (n = 6)): 0
- Grade 2 AEs: Fibrinogen decreased (150 mg single dose (n = 6)): 0
- Grade 2 AEs: Leukocytes decreased (150 mg single dose (n = 6)): 0
- Grade 2 AEs: Triglycerides increased (150 mg single dose (n = 6)): 0
- SAEs (150 mg single dose (n = 6)): 0
- Treatment-emergent AEs Related to Compound A (150 mg single dose (n = 6)): 0
- Volunteers with ≥0.1 AE (treatment-emergent AEs) (150 mg single dose (n = 6)): 2
- Deaths (300 mg single dose (n = 6)): 0
- Grade 2 AEs: Bilirobin increased (300 mg single dose (n = 6)): 0
- Grade 2 AEs: Cholesterol increased (300 mg single dose (n = 6)): 0
- Grade 2 AEs: Fibrinogen decreased (300 mg single dose (n = 6)): 0
- Grade 2 AEs: Leukocytes decreased (300 mg single dose (n = 6)): 0
- Grade 2 AEs: Triglycerides increased (300 mg single dose (n = 6)): 1
- SAEs (300 mg single dose (n = 6)): 0
- Treatment-emergent AEs Related to Compound A (300 mg single dose (n = 6)): 0
- Volunteers with ≥0.1 AE (treatment-emergent AEs) (300 mg single dose (n = 6)): 0
- Deaths (500 mg single dose (n = 6)): 0
- Grade 2 AEs: Bilirobin increased (500 mg single dose (n = 6)): 0
- Grade 2 AEs: Cholesterol increased (500 mg single dose (n = 6)): 0
- Grade 2 AEs: Fibrinogen decreased (500 mg single dose (n = 6)): 0
- Grade 2 AEs: Leukocytes decreased (500 mg single dose (n = 6)): 0
- Grade 2 AEs: Triglycerides increased (500 mg single dose (n = 6)): 0
- SAEs (500 mg single dose (n = 6)): 0
- Treatment-emergent AEs Related to Compound A (500 mg single dose (n = 6)): 0
- Volunteers with ≥0.1 AE (treatment-emergent AEs) (500 mg single dose (n = 6)): 2
- Deaths (Total (n = 32)): 0
- Grade 2 AEs: Bilirobin increased (Total (n = 32)): 0
- Grade 2 AEs: Cholesterol increased (Total (n = 32)): 0
- Grade 2 AEs: Fibrinogen decreased (Total (n = 32)): 0
- Grade 2 AEs: Leukocytes decreased (Total (n = 32)): 0
- Grade 2 AEs: Triglycerides increased (Total (n = 32)): 2
- SAEs (Total (n = 32)): 0
- Treatment-emergent AEs Related to Compound A (Total (n = 32)): 0
- Volunteers with ≥0.1 AE (treatment-emergent AEs) (Total (n = 32)): 4
- Grade 3 or 4 laboratory abnormalities (single dose 25-500 mg, fasted): No Grade 3 or 4 abnormalities were reported
- SAEs and premature discontinuation for an AE (single dose 25-500 mg, fasted): No volunteers experienced an SAE or prematurely discontinued the study for an AE
- severity of treatment emergent adverse events (TEAEs) (single dose 25-500 mg, fasted): All TEAEs were mild
- tolerability (single dose 25-500 mg, fasted): well tolerated

From US10973801B2, “Capsid assembly modulator dosing regimen” (Janssen Sciences Ireland Unlimited Company, priority 2018, dated 2021)
